Calls of active or inactive are those of the source. The calls are words filed in the database; no cut-off is given here.
Key:
H9c2 [1] = experiment: (§1) Inhibition of apoptosis in hypoxia/reoxygenation induced injury in rat H9c2 cells assessed as late necrotic cells at 10 uM treated after 8 hrs of hypoxia and before 2 hrs of reoxygenation period by AnnexinV-FITC/propidium iodide staining based flow cytometry analysis (reference value: 1.25%); format: functional; parameters: scale not given: the % may be the effect or the level left
H9c2 [2] = experiment: Inhibition of apoptosis in hypoxia/reoxygenation induced injury in rat H9c2 cells assessed as caspase-3 activity at 10 uM treated after 8 hrs of hypoxia and before 16 hrs of reoxygenation period in presence of ZnCl2 (reference value: 187%); format: functional; parameters: scale not given: the % may be the effect or the level left
H9c2 [3] = experiment: as §1, with “apoptotic” for “necrotic”, “period in presence of ZnCl2” for “period”, “7%)” for “1.25%)”; format: functional; parameters: scale not given: the % may be the effect or the level left
H9c2 [4] = experiment: (§2) Inhibition of apoptosis in hypoxia/reoxygenation induced injury in rat H9c2 cells assessed as viable cells at 10 uM treated after 8 hrs of hypoxia and before 2 hrs of reoxygenation period by AnnexinV-FITC/propidium iodide staining based flow cytometry analysis (reference value: 55.35%); format: functional; conditions: read-out: Activity
H9c2 [5] = experiment: as §1, with “as” for “as late”, “period in presence of ZnCl2” for “period”; format: functional; parameters: scale not given: the % may be the effect or the level left
H9c2 [6] = experiment: as §2, with “early apoptotic” for “viable”, “period in presence of ZnCl2” for “period”, “36.45%)” for “55.35%)”; format: functional; parameters: scale not given: the % may be the effect or the level left
H9c2 [7] = experiment: Cardioprotective activity in rat H9c2 cells assessed as reduction in hypoxia/reoxygenation-induced intracellular Zn2+ level depletion by measuring improvement in intracellular TSQ fluorescence intensity at 10 uM treated at the onset of 1 hr reoxygenation period in the presence of ZnCl2 by TSQ staining based fluorescence analysis relative to control; format: functional
H9c2 [8] = experiment: Cardioprotective activity against hypoxia/reoxygenation-induced injury in rat H9c2 cells assessed as cell viability at 10 uM treated after 8 hrs of hypoxia and before 16 hrs of reoxygenation period in presence of ZnCl2 by MTT assay; format: functional; conditions: read-out: Activity
H9c2 [9] = experiment: Inhibition of apoptosis in hypoxia/reoxygenation induced injury in rat H9c2 cells assessed as late apoptotic cells at 10 uM treated after 8 hrs of hypoxia and before 2 hrs of reoxygenation period by AnnexinV-FITC/propidium iodide staining based flow cytometry analysis (reference value: 7%); format: functional; parameters: scale not given: the % may be the effect or the level left
H9c2 [10] = experiment: as §2, with “period in presence of ZnCl2” for “period”; format: functional; conditions: read-out: Activity
[11] = Zinc ionophore activity assessed as uptake of zinc ions into liposomes by measuring increase in liposome-encapsulated FluoZin3-fluorescence at 10 uM measured after 1 hr in presence of ZnCl2 and TPEN by fluorescence analysis
[12] = Zinc ionophore activity assessed as uptake of zinc ions into liposomes by measuring increase in liposome-encapsulated FluoZin3-fluorescence at 10 uM measured after 1 hr in presence of ZnCl2 by fluorescence analysis relative to control
H9c2 [13] = experiment: Inhibition of apoptosis in hypoxia/reoxygenation induced injury in rat H9c2 cells assessed as early apoptotic cells at 10 uM treated after 8 hrs of hypoxia and before 2 hrs of reoxygenation period by AnnexinV-FITC/propidium iodide staining based flow cytometry analysis (reference value: 36.45%); format: functional; parameters: scale not given: the % may be the effect or the level left
H9c2 [14] = experiment: Cardioprotective activity against hypoxia/reoxygenation-induced injury in rat H9c2 cells assessed as cell viability at 10 uM treated after 8 hrs of hypoxia and before 16 hrs of reoxygenation period by MTT assay; format: functional, cell-based

| Compound | Activity (H9c2 [1]) [%] | Activity (H9c2 [2]) [%] | Activity (H9c2 [3]) [%] | viability at 10 µM (H9c2 [4]) [%] | Activity (H9c2 [5]) [%] | Activity (H9c2 [6]) [%] | fold change (FC) (H9c2 [7]) | viability at 10 µM (H9c2 [8]) [%] | Activity (H9c2 [9]) [%] | viability at 10 µM (H9c2 [10]) [%] | Activity [11] | fold change (FC) [12] | Activity (H9c2 [13]) [%] | Activity (H9c2 [14]) |
| --- | --- | --- | --- | --- | --- | --- | --- | --- | --- | --- | --- | --- | --- | --- |
| O=C(O[C@@H]1Cc2c(O)cc(O)cc2O[C@@H]1c1cc(O)c(O)c(O)c1)c1cc(O)c(O)c(O)c1 [EPIGALOCATECHIN GALLATE] | 2.02 | 112 | 2.72 | 52.5 | 0.97 | 16.12 | 4 | 78 | 8.12 | 80.1 | inactive | 28 | 37.4 | inactive |
| Oc1cc(O)c2c(c1)O[C@H](c1cc(O)c(O)c(O)c1)[C@H](O)C2 [EPIGALLOCATECHIN] | 3.92 | 158 | 6.72 | 47 | 5.05 | 26.47 | 1 | 52 | 4.77 | 61.8 | inactive | 8 | 44.27 | inactive |
| O=C(O[C@@H]1Cc2c(O)cc(O)cc2O[C@@H]1c1ccc(O)c(O)c1)c1cc(O)c(O)c(O)c1 [EPICATECHIN GALLATE] | 1.05 | 139 | 2.32 | 54.2 | 1.42 | 22.8 | 2.1 | 60 | 7.32 | 73.5 | inactive | 16 | 37.4 | inactive |
| Oc1c(I)cc(Cl)c2cccnc12 | – | – | – | – | – | – | – | – | – | – | inactive | 40 | – | – |
